Patent US8642633B2, “Di-substituted amides for enhancing glutamatergic synaptic responses” (Cortex Pharmaceutical, Inc., priority 2007, dated 2014)

How the values were obtained:
AMPA receptor = assay: In vivo electrophysiology: field EPSP amplitude in the dentate gyrus of anesthetized animals; set-up: species or system rat
Procedure: A. Enhancement of AMPA Receptor Function In Vivo.
Synaptic responses mediated by AMPA receptors are increased according to the method of the invention, using the compounds described herein.
(§1) The electrophysiological effects of the invention compounds were tested in vivo in anesthetized animals according to the following procedures. Animals are maintained under anesthesia by phenobarbital administered using a Hamilton syringe pump. Stimulating and recording electrodes are inserted into the perforant path and dentate gyrus of the hippocampus, respectively. Once electrodes are implanted, a stable baseline of evoked responses are elicited using single monophasic pulses (100 μs pulse duration) delivered at 3/min to the stimulating electrode. Field EPSPs are monitored until a stable baseline is achieved (about 20-30 min), after which a solution of test compound is injected intraperitoneally and evoked field potentials are recorded. Evoked potentials were recorded for approximately 2 h following drug administration or until the amplitude of the field EPSP returns to baseline. In the latter instance, it is common that an iv administration is also carried out with an appropriate dose of the same test compound. Invention compounds were assayed in the in vivo electrophysiology assay described above and data for representative test compounds is shown in column 1 in Table 1.
The electrophysiological effects of invention compounds were tested in vivo in anesthetized animals according to the following procedures.
as §1, with “Animals” for “The electrophysiological effects of the invention compounds were tested in vivo in anesthetized animals according to the following procedures. Animals”, “are” for “were”, “compound.” for “compound. Invention compounds were assayed in the in vivo electrophysiology assay described above and data for representative test compounds is shown in column 1 in Table 1.”

[1] = test system: d-amphetamine stimulated locomotion in mice; assay: Inhibition of d-amphetamine stimulated locomotion; format: in vivo; conditions: Mus musculus, ip, 18 mpk i.p., d-amphetamine 2 mg/kg
Procedure: B. Behavioral Testing: Inhibition of d-Amphetamine Stimulated Locomotion
The ability of the invention compounds to inhibit d-Amphetamine stimulated locomotor activity was assayed according to the following procedure. Male CD1 mice, 25-30 gm body weight, were brought into the experimental room and allowed at least 30 min of acclimation. Each mouse was placed into the testing enclosure with an infrared beam array that automatically monitors the animal's activity. Mice were habituated in the testing enclosure for 20 min, and then returned to their home cage. Mice were dosed intraperitoneally with test compound in appropriate vehicle 5 minutes before d-Amphetamine injection (2 mpk). Ten minutes after d-Amphetamine injection, mice were tested for locomotor activity for a total of […]. The data was computer collected and expressed as “arbitrary movement units.” All data were analyzed by comparing the groups treated with the test compound to the vehicle control group. The data shown is the % inhibition of hyperactivity induced by acute administration of 2 mg/kg d-amphetamine in mice. The compounds tested produced a statistically significant inhibition of d-amphetamine stimulated locomotion.
Male CD1 mice, 25-30 gm body weight, were brought into the experimental room and allowed at least 30 min of acclimation. Each mouse was placed into the testing enclosure with an infrared beam array that automatically monitors the animal's activity. Mice were habituated in the testing enclosure for 20 min, and then returned to their home cage. Mice were dosed intraperitoneally with test compound in appropriate vehicle 5 minutes before d-Amphetamine injection. Ten minutes after d-Amphetamine injection, mice were tested for locomotor activity for a total of 15 minutes. The data was computer collected and expressed as “arbitrary movement units.” All data were analyzed by comparing the groups treated with the test compound to the vehicle control group.

[2] = dosed intravenously (footnote 3)

Compound | In vivo Electrophysiology: % increase in the amplitude of the field EPSP in the dentate gyrus of rat (AMPA receptor; 10mpk i.p.) [%] | melting point [°C] | other results
O=C(c1ccc2nccnc2c1)N1CCCCC1 [CX516, 1-(quinoxalin-6-ylcarbonyl)piperidine, reference compound] | – | – | increase in amplitude of the field EPSP (AMPA receptor; rat dentate gyrus, 50 mg/kg i.p.): 9%
CN(C(=O)c1ccc2nonc2c1)C1CCCCC1 [Example 4, N-Cyclohexyl-N-methyl-[2,1,3]-benzoxadiazole-5-carboxamide] | 17 | 134 to 135 | inhibition in vivo at 18 mg/kg [1]: 80%
CN(C(=O)c1ccc2nonc2c1)C1CCCC1 [Example 5, N-Cyclopentyl-N-methyl-[2,1,3]-benzoxadiazole-5-carboxamide] | 15 | 110 to 111 | –
CN(C(=O)c1ccc2nonc2c1)C1CCC1 [Example 6, N-Cyclobutyl-N-methyl-[2,1,3]-benzoxadiazole-5-carboxamide] | 10 | 51 to 52 | inhibition in vivo at 18 mg/kg [1]: 37%
CN(C(=O)c1ccc2nonc2c1)[C@H]1CC[C@@H](C#N)CC1 [Example 10, N-(cis-4-Cyanocyclohexyl)-N-methyl-[2,1,3]-benzoxadiazole-5-carboxamide] | – | 222 to 223 | –
CN(C(=O)c1ccc2nonc2c1)[C@H]1CC[C@H](C#N)CC1 [Example 11, N-(trans-4-cyanocyclohexyl)-N-methyl-[2,1,3]-benzoxadiazole-5-carboxamide] | 12 | – | –
CN(C(=O)c1ccc2nonc2c1)C1CCOCC1 [Example 12, N-Methyl-N-tetrahydro-2H-pyran-4-yl-[2,1,3]-benzoxadiazole-5-carboxamide] | 20 | – | inhibition in vivo at 18 mg/kg [1]: 66%
O=C(NC1CCCOC1)c1ccc2nonc2c1 (stereo not shown) [Example 15, N-(Tetrahydro-2H-pyran-3-yl)-[2,1,3]-benzoxadiazole-5-carboxamide] | – | 204 to 205 | –
CCN(C(=O)c1ccc2nonc2c1)C1CCOCC1 [Example 17, N-Ethyl-N-tetrahydro-2H-pyran-4-yl-[2,1,3]-benzoxadiazole-5-carboxamide] | 12 | 102 to 104 | inhibition in vivo at 18 mg/kg [1]: 23%
CCN(C(=O)c1ccc2nonc2c1)C1CCCCC1 [Example 18, N-Cyclohexyl-N-ethyl-[2,1,3]-benzoxadiazole-5-carboxamide] | – | 51 to 52 | –
CN(CC1CCCCC1)C(=O)c1ccc2nonc2c1 [Example 19, N-(Cyclohexylmethyl)-N-methyl-[2,1,3]-benzoxadiazole-5-carboxamide] | – | 71 to 72 | –
CN(Cc1ccccc1)C(=O)c1ccc2nonc2c1 [Example 20, N-Benzyl-N-methyl-[2,1,3]-benzoxadiazole-5-carboxamide] | – | 105 to 106 | –
O=C(c1ccc2nonc2c1)N(C1CCOCC1)C1CC1 [Example 24, N-Cyclopropyl-N-tetrahydro-2H-pyran-4-yl-[2,1,3]-benzoxadiazole-5-carboxamide] | – | 108 to 109 | –
O=C(c1ccc2nonc2c1)N(CC(F)(F)F)C1CCOCC1 [Example 25, N-Tetrahydro-2H-pyran-4-yl-N-(2,2,2-trifluoroethyl)-[2,1,3]-benzoxadiazole-5-carboxamide] | – | 134 to 135 | In vivo Electrophysiology: % increase in the amplitude of the field EPSP in the dentate gyrus of rat (AMPA receptor; [2]): 10%^3
CN(C(=O)c1ccc2nonc2c1)C1CCN(C(=O)OC(C)(C)C)CC1 [Example 26, tert-Butyl-4-[([2,1,3]-benzoxadiazol-5-ylcarbonyl)(methyl)amino]piperidine-1-carboxylate] | – | 98 to 100 | –
CN1CCC(N(C)C(=O)c2ccc3nonc3c2)CC1 [Example 28, N-Methyl-N-(1-methylpiperidin-4-yl)-[2,1,3]-benzoxadiazole-5-carboxamide] | – | > 260 | –
CN(C(=O)c1ccc2nonc2c1)C1CCSCC1 [Example 33, N-Methyl-N-(tetrahydro-2H-thiopyran-4-yl)-[2,1,3]-benzoxadiazole-5-carboxamide] | – | – | In vivo Electrophysiology: % increase in the amplitude of the field EPSP in the dentate gyrus of rat (AMPA receptor; [2]): 16%^3
CN(C(=O)c1ccc2nccnc2c1)C1CCOCC1 [Example 36, N-Methyl-N-tetrahydro-2H-pyran-4-ylquinoxaline-6-carboxamide] | – | 130 to 131 | In vivo Electrophysiology: % increase in the amplitude of the field EPSP in the dentate gyrus of rat (AMPA receptor; [2]): 5%^3
CN(C(=O)c1ccc2nonc2c1)C1CCC(=O)CC1 [Example 37, N-Methyl-N-(4-oxocyclohexyl)-[2,1,3]-benzoxadiazole-5-carboxamide] | 18 | 183 to 184 | inhibition in vivo at 18 mg/kg [1]: 100%
CN(C(=O)c1ccc2nonc2c1)C1CCC(F)(F)CC1 [Example 40, N-(4,4-Difluorocyclohexyl)-N-methyl-[2,1,3]-benzoxadiazole-5-carboxamide] | 18 | 137 to 138 | inhibition in vivo at 18 mg/kg [1]: 84%
CN(C(=O)c1ccc2nonc2c1)[C@H]1CC[C@H](O)CC1 [Example 51, N-(4-trans-Hydroxycyclohexyl)-N-methyl-[2,1,3]-benzoxadiazole-5-carboxamide] | 21 | – | inhibition in vivo at 18 mg/kg [1]: 100%
CO[C@H]1CC[C@H](N(C)C(=O)c2ccc3nonc3c2)CC1 [Example 53, N-(trans-4-Methoxycyclohexyl)-N-methyl-[2,1,3]-benzoxadiazole-5-carboxamide] | 17 | – | inhibition in vivo at 18 mg/kg [1]: 94%
CO[C@H]1CC[C@H](N(C)C(=S)c2ccc3nonc3c2)CC1 [Example 54, N-(trans-4-Methoxycyclohexyl)-N-methyl-[2,1,3]-benzoxadiazole-5-carbothioamide] | – | – | In vivo Electrophysiology: % increase in the amplitude of the field EPSP in the dentate gyrus of rat (AMPA receptor; [2]): 18%^3
CN(C(=O)c1ccc2nonc2c1)[C@H]1CC[C@H](n2ncnn2)CC1 [Example 56, N-Methyl-N-[trans-4-(2H-tetrazol-2-yl)cyclohexyl]-[2,1,3]-benzoxadiazole-5-carboxamide] | 19 | – | –
CN(C(=O)c1ccc2nonc2c1)C1CCCC(F)(F)C1 (stereo not shown) [Example 62, N-Methyl-N-(3,3-difluorocyclohexyl)-[2,1,3]-benzoxadiazole-5-carboxamide] | – | 119 to 120 | –
CN(C(=O)c1ccc2nonc2c1)C1CCCCC1(F)F (stereo not shown) [Example 65, N-Methyl-N-(2,2-difluorocyclohexyl)-[2,1,3]-benzoxadiazole-5-carboxamide] | – | 101 to 102 | –
O=C(NC1CCOC(O)C1)c1ccc2nonc2c1 (stereo not shown) [Example 66, N-(2-Hydroxytetrahydro-2H-pyran-4-yl)-[2,1,3]-benzoxadiazole-5-carboxamide] | – | 91 to 92 | –
CN(C(=O)c1ccc2nonc2c1)C1CCOC(=O)C1 (stereo not shown) [Example 68, N-Methyl-N-(2-oxotetrahydro-2H-pyran-4-yl)-[2,1,3]-benzoxadiazole-5-carboxamide] | – | 169 to 171 | –
CN(C(=O)c1ccc2nonc2c1)C1CCOC(O)C1 (stereo not shown) [Example 69, N-(2-Hydroxytetrahydro-2H-pyran-4-yl)-N-methyl-[2,1,3]-benzoxadiazole-5-carboxamide] | – | < 90 | –
CN(C(=O)c1ccc2nonc2c1)[C@@H]1CCOC1 [Example 73, N-Methyl-N—(R)-tetrahydrofuran-3-yl-[2,1,3]-benzoxadiazole-5-carboxamide] | 13 | – | –
